Reference: patent US20240277684A1, “BLOCKADE OF CHEMOKINE (C-C MOTIF) RECEPTOR 2 DURING FLUID RESUSCITATION” (University of South Florida, priority 2022, published 2024)

Experiments:
[1] = tested on: severe hemorrhagic shock; experiment: Example 2 Series 4: lethal hemorrhage without fluid resuscitation; type: in vivo, rat; conditions: 5 μmol/kg INCB3284 or 1 μmol/kg SB328437 after 40% TBV hemorrhage
Description: (§1) The hemorrhagic shock models were performed as described previously, with slight modifications (DeSantis A J, et al., The Chemokine (C-C Motif) Receptor 2 Antagonist INCB3284 Reduces Fluid Requirements and Protects From Hemodynamic Decompensation During Resuscitation From Hemorrhagic Shock. Crit Care Explor 2022;4(5):e0701; Bach H H, et al., Chemokine (C-X-C motif) receptor 4 and atypical chemokine receptor 3 regulate vascular alpha(1)-adrenergic receptor function. Mol Med 2014; 20:435-47; Nassoiy S P, et al., Effects of the Kv7 voltage activated potassium channel inhibitor linopirdine in rat models of hemorrhagic shock. Clin Exp Pharmacol Physiol 2018. doi: 10.1111/1440-1681.12958. PubMed PMID: 29702725; Bach H H, et al., Proteasome inhibition prolongs survival during lethal hemorrhagic shock in rats. J Trauma Acute Care Surg 2013; 74(2):499-507). In brief, anesthesia induction was performed with the animal and isoflurane-soaked gauze placed in a bell jar. After anesthesia induction, the animals were transferred to the operative field and anesthesia was maintained with 2.7% isoflurane administered via nose-cone inhalation with the SomnoSuite small animal anesthesia system (Kent Scientific Corporation, Torrington, CT, USA). […] Using a direct cut-down technique, the left femoral artery was isolated and cannulated with a 24-gauge peripheral intravenous catheter to allow for blood withdrawal, hemodynamic monitoring, drug administration, and fluid resuscitation. After catheter placement, isoflurane was decreased to 1.5%. Hemodynamics were continuously monitored with the Surgivet invasive blood pressure monitor (Med-Electronics, Beltsville, MD, USA). Blood pressures were recorded at 1-5 min intervals during the hemorrhage and resuscitation periods. Four subsequent series of experiments were performed. All experiments in each series were performed in alternating order. In all experiments animals were continuously monitored and remained under general anesthesia until euthanasia or death, as defined by asystole or loss of pulse pressure.
Series 4: The purpose of these experiments was to determine whether treatment with the chemokine receptor antagonists increases shock tolerance, blood pressure and survival time without additional fluid resuscitation. As such, death is an intentional endpoint. Earlier endpoints are unable to answer these questions and alternatives are not available. Rats were hemorrhaged 40% total blood volume (TBV) within 10 min. At t=15 min, animals were injected with vehicle (1 mL NS, n=3), 5 μmol/kg INCB3284 in 1 mL NS (n=5) or […] SB 328437 in 1 mL NS (n=5). Animals were then hemorrhaged 2% TBV every 5 minutes until death.

[2] = tested on: hemorrhagic shock; experiment: Example 2 Series 2: 60 min hemorrhagic shock, single dose, fluid resuscitation until t=300 min; type: in vivo, rat
Description: as §1
Series 2: Rats were hemorrhaged to a MAP of less than or equal to 30 mmHg for a period of 60 min, followed by fluid resuscitation until t=300 min as in Series 1. At the end of the hemorrhagic shock period (t=60 min), animals were injected with 1 mL of normal saline (NS) (n=6), 5 μmol/kg (n=6) INCB3284 in 1 mL NS or 1.1 μmol/kg SB 328437 (n=6) in 1 mL NS at t=60 min. At t=0 min, 60 min, 120 min, 180 min, 240 min and 300 min, blood samples (0.3 ml) were obtained and used for arterial blood gas analyses and measurements of routine laboratory parameters. At t=300 min, surviving animals were euthanized (5% isoflurane inhalation, bilateral pneumothorax).
Arterial blood gases and routine laboratory parameters. Arterial blood gases, electrolytes, creatinine, lactate, hematocrit and hemoglobin were analyzed using the Element point of care veterinary blood gas, electrolyte and critical care analyzer (Cuattro Veterinary USA, Loveland, CO, USA).

[3] = tested on: hemorrhagic shock; experiment: Example 1 first series: 30 min hemorrhagic shock, fluid resuscitation until t=90 min; type: in vivo, rat
Description: In vivo animal experiments. All procedures were performed in accordance with the National Institutes of Health Guidelines for Use of Laboratory Animals and were approved by the University of South Florida Institutional Animal Care and Use Committeee (IS00008139). Male Sprague-Dawley rats (300-400 g, Envigo, Indianapolis, IN, USA). were anesthetized with 1.7% isoflurane via nose-cone inhalation with the SomnoSuite anesthesia system (Kent Scientific, Torrington, CT, USA). […] The left femoral artery was isolated and cannulated with a 24-gauge peripheral intravenous catheter to allow for blood withdrawal, hemodynamic monitoring, drug administration, and fluid resuscitation. Hemodynamics were continuously monitored with the SurgivetV6400 blood pressure monitor (Med-Electronics, Beltsville, MD, USA), and blood pressures and heart rate were recorded at 1-10 min intervals. All animals were observed over a 10 min period to ensure hemodynamic stability before start of the experiments. All experiments were performed randomized in alternating order. […] Physiol Res 2019; 68(4):675-679; Nassoiy S P, et al., Effects of the Kv7 voltage-activated potassium channel inhibitor linopirdine in rat models of haemorrhagic shock. Clin Exp Pharmacol Physiol 2018; Nassoiy S P, et al., Kv7 voltage-activated potassium channel inhibitors reduce fluid resuscitation requirements after hemorrhagic shock in rats. J Biomed Sci 2017; 24(1):8; Bach H Ht, et al., Proteasome inhibition prolongs survival during lethal hemorrhagic shock in rats. J Trauma Acute Care Surg 2013; 74(2):499-507; Bach H Ht, et al., Chemokine (C-X-C motif) receptor 4 and atypical chemokine receptor 3 regulate vascular alpha(1)-adrenergic receptor function. Mol Med 2014; 20:435-447), with slight modifications. In brief, rats were hemorrhaged to a mean arterial blood pressure (MAP) of less than or equal to 30 mmHg for a period of 30 minutes. At the end of the HS period (t=30 min), animals were injected with either vehicle (1 mL LR) or drug in 1 mL LR, followed by fluid resuscitation with 1 mL bolus injections of LR to maintain a systolic blood pressure (SBP) of 90 mmHg or a MAP of 60 mmHg. To avoid fluid overload, bolus injections of LR were limited to 1 mL/min. […] Animals were then resuscitated until t=90 min. At t=0, 15, 30, 60 and 90 min, blood samples were obtained, and plasma prepared. Samples were stored at -70° C. until further processing. At t=90 min, animals were euthanized (isoflurane inhalation, bilateral pneumothorax).

[4] = rats; cited from earlier work
[5] = molecular target: CCR2 (Homo sapiens, UniProt P41597); conditions: read-out: IC50, inhibiting monocyte chemoattractant protein-1 binding to hCCR2; cited from earlier work
Chain of CCR2 (P41597 whole entry): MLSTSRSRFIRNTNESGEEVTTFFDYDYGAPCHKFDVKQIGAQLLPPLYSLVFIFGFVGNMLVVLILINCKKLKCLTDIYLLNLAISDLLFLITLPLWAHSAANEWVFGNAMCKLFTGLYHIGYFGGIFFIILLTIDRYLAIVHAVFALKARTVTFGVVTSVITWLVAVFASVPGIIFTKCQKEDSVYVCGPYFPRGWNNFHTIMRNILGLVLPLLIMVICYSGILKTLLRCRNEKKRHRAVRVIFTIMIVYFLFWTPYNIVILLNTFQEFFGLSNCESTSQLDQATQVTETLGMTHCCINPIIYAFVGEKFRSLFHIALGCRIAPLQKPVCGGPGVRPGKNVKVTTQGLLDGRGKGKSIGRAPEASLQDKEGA

COc1ccc([C@]2(O)CC[C@@H](N3CC[C@@H](NC(=O)CNC(=O)c4cccc(C(F)(F)F)c4)C3)CC2)cn1 [INCB3284]
MAP during subsequent 2% TBV hemorrhages in 5 min intervals ([1]; no fluid resuscitation): indistinguishable among groups
median survival time ([1]; not significantly different between groups): 80 min
median survival time ([2]; 1.1 μmol/kg SB328437 or 5 μmol/kg INCB3284 at t=60 min): undefined
animals that survived the resuscitation period ([2]; 1.1 μmol/kg SB328437 or 5 μmol/kg INCB3284 at t=60 min, until t=300 min, n=6): all
reduction of fluid resuscitation requirements to achieve the target MAP ([2]; 5 μmol/kg at t=60 min, until t=220 min, p<0.05 vs. vehicle): 65%
fluid requirements to maintain hemodynamics ([3]; 1.1 μmol/kg at t=30 min, until t=90 min, p>0.05 vs. vehicle): 50 ± 1 mL/kg
effect on fluid requirements to maintain hemodynamics ([3]; 1.1 μmol/kg at t=30 min, vs vehicle): did not affect fluid requirements
MAP during the observation period ([3]; 5.5 μmol/kg at t=30 min): increased MAP at various time points
reduction of fluid requirements ([3]; 5.5 μmol/kg at t=30 min, until t=90 min, vs vehicle): 58±11%
fluid requirements to maintain hemodynamics ([3]; 5.5 μmol/kg at t=30 min, until t=90 min, p<0.05 vs. vehicle): 21.7 ± 6 mL/kg
half-live [4]: 168 min
IC50 [5]: 3.7 nM
